# Test system: spontaneously hypertensive male rats, strain MHS
# Assay: Anti-hypertensive activity in the spontaneously hypertensive rat (MHS): blood pressure and heart rate at the tail
# Format: in vivo
# Conditions: 5 mg/kg os, first day, 1 hr after dose
# Description: 1. Spontaneously Hypertensive Rat (MHS)
# Four spontaneously hypertensive male rats, strain MHS, weight 250 to 300 g for each group were used. The animals were treated for four consecutive days. The drugs were administered by gastric gavage while suspended in 5% arabic gum (0.2 ml/100 g body weight), and blood pressure (BP) and heart rate (HR) were measured at the tail by BP Recorder W+W. Blood pressure and heart rate were measured on the first and fourth day of treatment 1 hour before and 1 and 5 hours after drug administration.
row,Structure (SMILES),"Change in BP, 1 hr after dose, first day [mm Hg]"
1,"C=CCN1C[C@H](CC(C#N)C(=O)NCC)C[C@@H]2c3cccc4[nH]cc(c34)C[C@H]21 (stereo partly drawn) [355/1320, 2-Cyano-3-(6'-allylergoline-8'β)-N-ethylpropionamide]",-30
2,"N#CC(CC1CC2c3cccc4[nH]cc(c34)CC2N(CC2CC2)C1)C(N)=O (stereo not drawn) [355/1323, 2-Cyano-3-(6'-methylcyclopropylergoline-8'β)-propionamide]",-15
3,"CCNC(=O)C(C#N)CC1CC2c3cccc4[nH]cc(c34)CC2N(CC2CC2)C1 (stereo not drawn) [355/1324, 2-Cyano-3-(6'-methylcyclopropylergoline-8β)-N-ethylpropionamide]",-20
4,"CC(C)N1C[C@H](CC(C#N)C(N)=O)C[C@@H]2c3cccc4[nH]cc(c34)C[C@H]21 (stereo partly drawn) [Example 37, 2-Cyano-3-(6'-isopropylergoline-8'β)-propionamide]",-30
5,"CCNC(=O)C(C#N)C[C@@H]1C[C@@H]2c3cccc4[nH]cc(c34)C[C@H]2N(C(C)C)C1 (stereo partly drawn) [Example 38, 2-Cyano-3-(6'-isopropylergoline-8'β)-N-ethyl propionamide]",-20

# Same assay, conditions: 5 mg/kg os, first day, 5 hrs after dose
row,Structure (SMILES),"Change in BP, 5 hrs after dose, first day [mm Hg]"
1,"C=CCN1C[C@H](CC(C#N)C(=O)NCC)C[C@@H]2c3cccc4[nH]cc(c34)C[C@H]21 (stereo partly drawn) [355/1320, 2-Cyano-3-(6'-allylergoline-8'β)-N-ethylpropionamide]",-20
2,"N#CC(CC1CC2c3cccc4[nH]cc(c34)CC2N(CC2CC2)C1)C(N)=O (stereo not drawn) [355/1323, 2-Cyano-3-(6'-methylcyclopropylergoline-8'β)-propionamide]",-20
3,"CCNC(=O)C(C#N)CC1CC2c3cccc4[nH]cc(c34)CC2N(CC2CC2)C1 (stereo not drawn) [355/1324, 2-Cyano-3-(6'-methylcyclopropylergoline-8β)-N-ethylpropionamide]",-40
4,"CC(C)N1C[C@H](CC(C#N)C(N)=O)C[C@@H]2c3cccc4[nH]cc(c34)C[C@H]21 (stereo partly drawn) [Example 37, 2-Cyano-3-(6'-isopropylergoline-8'β)-propionamide]",-25
5,"CCNC(=O)C(C#N)C[C@@H]1C[C@@H]2c3cccc4[nH]cc(c34)C[C@H]2N(C(C)C)C1 (stereo partly drawn) [Example 38, 2-Cyano-3-(6'-isopropylergoline-8'β)-N-ethyl propionamide]",-10

# Same assay, conditions: 5 mg/kg os, fourth day, 1 hr after dose
row,Structure (SMILES),"Change in BP, 1 hr after dose, fourth day [mm Hg]"
1,"C=CCN1C[C@H](CC(C#N)C(=O)NCC)C[C@@H]2c3cccc4[nH]cc(c34)C[C@H]21 (stereo partly drawn) [355/1320, 2-Cyano-3-(6'-allylergoline-8'β)-N-ethylpropionamide]",-20
2,"N#CC(CC1CC2c3cccc4[nH]cc(c34)CC2N(CC2CC2)C1)C(N)=O (stereo not drawn) [355/1323, 2-Cyano-3-(6'-methylcyclopropylergoline-8'β)-propionamide]",-20
3,"CCNC(=O)C(C#N)CC1CC2c3cccc4[nH]cc(c34)CC2N(CC2CC2)C1 (stereo not drawn) [355/1324, 2-Cyano-3-(6'-methylcyclopropylergoline-8β)-N-ethylpropionamide]",-40
4,"CC(C)N1C[C@H](CC(C#N)C(N)=O)C[C@@H]2c3cccc4[nH]cc(c34)C[C@H]21 (stereo partly drawn) [Example 37, 2-Cyano-3-(6'-isopropylergoline-8'β)-propionamide]",-45
5,"CCNC(=O)C(C#N)C[C@@H]1C[C@@H]2c3cccc4[nH]cc(c34)C[C@H]2N(C(C)C)C1 (stereo partly drawn) [Example 38, 2-Cyano-3-(6'-isopropylergoline-8'β)-N-ethyl propionamide]",-32

# Same assay, conditions: 5 mg/kg os, fourth day, 5 hrs after dose
row,Structure (SMILES),"Change in BP, 5 hrs after dose, fourth day [mm Hg]"
1,"C=CCN1C[C@H](CC(C#N)C(=O)NCC)C[C@@H]2c3cccc4[nH]cc(c34)C[C@H]21 (stereo partly drawn) [355/1320, 2-Cyano-3-(6'-allylergoline-8'β)-N-ethylpropionamide]",-15
2,"N#CC(CC1CC2c3cccc4[nH]cc(c34)CC2N(CC2CC2)C1)C(N)=O (stereo not drawn) [355/1323, 2-Cyano-3-(6'-methylcyclopropylergoline-8'β)-propionamide]",-30
3,"CCNC(=O)C(C#N)CC1CC2c3cccc4[nH]cc(c34)CC2N(CC2CC2)C1 (stereo not drawn) [355/1324, 2-Cyano-3-(6'-methylcyclopropylergoline-8β)-N-ethylpropionamide]",-35
4,"CC(C)N1C[C@H](CC(C#N)C(N)=O)C[C@@H]2c3cccc4[nH]cc(c34)C[C@H]21 (stereo partly drawn) [Example 37, 2-Cyano-3-(6'-isopropylergoline-8'β)-propionamide]",-35
5,"CCNC(=O)C(C#N)C[C@@H]1C[C@@H]2c3cccc4[nH]cc(c34)C[C@H]2N(C(C)C)C1 (stereo partly drawn) [Example 38, 2-Cyano-3-(6'-isopropylergoline-8'β)-N-ethyl propionamide]",-28
